Reference: patent publication US8076338B2, “Kinase modulators and methods of use” (Exelixis, Inc., priority 2004, dated 2011)
Like-named read-outs stand apart in the source and are kept apart here.

Key:
p70S6K = p70S6K (Homo sapiens, UniProt P23443); assay: Luciferase-coupled chemiluminescence kinase assay (ATP consumption); assay type: biochemical
Outline: (§1)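 Enzyme at 2.5-5 nM was preincubated 30 min at room temperature with compound in Tris pH 7.5, MgCl2, TX-100, DTT, then reacted with ATP for 3 h at ambient temperature. Remaining ATP was quantified by luciferase-luciferin chemiluminescence, with consumption kept at 25-60%; […].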

AktK = AktK (Homo sapiens, UniProt P31749); assay: as above; assay type: biochemical; conditions: read-out: AKT-1 IC50
Outline: as §1

Sequence of p70S6K (P23443 whole entry): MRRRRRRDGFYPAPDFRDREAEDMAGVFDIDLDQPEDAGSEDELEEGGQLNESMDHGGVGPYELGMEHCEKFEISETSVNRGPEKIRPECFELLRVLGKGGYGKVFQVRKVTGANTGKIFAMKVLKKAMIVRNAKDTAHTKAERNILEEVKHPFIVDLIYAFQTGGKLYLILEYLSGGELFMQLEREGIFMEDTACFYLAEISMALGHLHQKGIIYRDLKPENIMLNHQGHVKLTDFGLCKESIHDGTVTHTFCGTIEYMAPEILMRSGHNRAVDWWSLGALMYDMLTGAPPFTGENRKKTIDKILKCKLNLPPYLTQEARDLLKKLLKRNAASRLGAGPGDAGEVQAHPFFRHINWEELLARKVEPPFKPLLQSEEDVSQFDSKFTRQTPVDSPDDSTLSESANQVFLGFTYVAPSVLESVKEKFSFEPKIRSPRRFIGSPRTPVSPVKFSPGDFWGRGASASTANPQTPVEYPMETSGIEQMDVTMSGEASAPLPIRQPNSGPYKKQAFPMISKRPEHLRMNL
Sequence of AktK (P31749 whole entry): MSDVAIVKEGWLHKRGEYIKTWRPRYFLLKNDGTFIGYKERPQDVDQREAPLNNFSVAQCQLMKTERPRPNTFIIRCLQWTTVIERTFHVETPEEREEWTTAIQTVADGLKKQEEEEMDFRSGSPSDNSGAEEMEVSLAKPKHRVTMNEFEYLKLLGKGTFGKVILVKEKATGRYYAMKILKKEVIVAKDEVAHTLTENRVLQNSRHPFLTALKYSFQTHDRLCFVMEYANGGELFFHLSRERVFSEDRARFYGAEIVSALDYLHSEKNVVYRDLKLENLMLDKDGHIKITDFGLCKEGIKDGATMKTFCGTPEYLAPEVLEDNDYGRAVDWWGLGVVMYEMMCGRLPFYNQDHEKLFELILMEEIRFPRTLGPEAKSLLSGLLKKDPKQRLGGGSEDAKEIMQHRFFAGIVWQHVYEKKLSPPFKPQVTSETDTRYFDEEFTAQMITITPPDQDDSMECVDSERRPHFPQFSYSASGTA

| IC50 (p70S6K) [nM] | IC50 (AktK) [nM] | IC50 (p70S6K; Table 1, class symbols per key) [nM] | IC50 (AktK; Table 1, class symbols per key) [nM] | Compound |
| --- | --- | --- | --- | --- |
| 100 to 1000 | 1000 to 10000 | – | – | CCc1n[nH]c2ncnc(N3CCN(c4cc(Cl)c(OCCCN(C)C)cc4C)CC3)c12 [Entry 388, 3-({2-chloro-4-[4-(3-ethyl-1H-pyrazolo[3,4-d]pyrimidin-4-yl)piperazin-1-yl]-5-methylphenyl}oxy)-N,N-dimethylpropan-1-amine] |
| – | – | < 100 | 100 to 1000 | CC(C)CCNc1c(F)c(NCCN2CCCC2)nc(N2CCN(c3ncnc4[nH]nc(Br)c34)CC2)c1F [Entry 264, 6-[4-(3-bromo-1H-pyrazolo[3,4-d]pyrimidin-4-yl)piperazin-1-yl]-3,5-difluoro-N~4~-(3-methylbutyl)-N~2~-(2-pyrrolidin-1-ylethyl)pyridine-2,4-diamine] |
| < 100 | 100 to 1000 | – | – | CCc1n[nH]c2ncnc(N3CCN(c4cc(Cl)cc(CCCN(CC)CC)c4C)CC3)c12 [Entry 402, 3-{5-chloro-3-[4-(3-ethyl-1H-pyrazolo[3,4-d]pyrimidin-4-yl)piperazin-1-yl]-2-methylphenyl}-N,N-diethylpropan-1-amine] |
| – | – | < 100 | < 100 | CCCC(F)(F)c1cc(NCCN2CCCC2)c(C)c(N2CCN(c3ncnc4[nH]nc(Br)c34)CC2)c1 [Entry 277, 3-[4-(3-bromo-1H-pyrazolo[3,4-d]pyrimidin-4-yl)piperazin-1-yl]-5-(1,1-difluorobutyl)-2-methyl-N-(2-pyrrolidin-1-ylethyl)aniline] |
| 1000 to 10000 | 1000 to 10000 | – | – | CCc1n[nH]c2ncnc(N3CCN(c4cccc(Cl)c4)C(C(=O)NCCN(C)C)C3)c12 (centres unmarked) [Entry 360, 1-(3-chlorophenyl)-N-[2-(dimethylamino)ethyl]-4-(3-ethyl-1H-pyrazolo[3,4-d]pyrimidin-4-yl)piperazine-2-carboxamide] |
| 100 to 1000 | ≥ 10000 | – | – | Clc1cccc(N2CCN(c3ncnc4[nH]ncc34)CC2)c1 [Entry 298, 4-[4-(3-chlorophenyl)piperazin-1-yl]-1H-pyrazolo[3,4-d]pyrimidine] |
| – | – | < 100 | < 100 | Cc1c(CCCN2CCCC2)cc(OCC(C)C)cc1N1CCN(c2ncnc3[nH]nc(Br)c23)CC1 [Entry 240, 3-bromo-4-{4-[2-methyl-5-[(2-methylpropyl)oxy]-3-(3-pyrrolidin-1-ylpropyl)phenyl]piperazin-1-yl}-1H-pyrazolo[3,4-d]pyrimidine] |
| 100 to 1000 | 1000 to 10000 | – | – | CC(=O)Nc1ccc(-c2n[nH]c3ncnc(N4CCN(c5cc(Cl)ccc5C)CC4)c23)cc1 [Entry 342, N-(4-{4-[4-(5-chloro-2-methylphenyl)piperazin-1-yl]-1H-pyrazolo[3,4-d]pyrimidin-3-yl}phenyl)acetamide] |
| < 100 | 1000 to 10000 | – | – | Cc1ccc(Cl)cc1N1CCN(c2ncnc3[nH]nc(-c4cccs4)c23)CC1 [Entry 338, 4-[4-(5-chloro-2-methylphenyl)piperazin-1-yl]-3-(2-thienyl)-1H-pyrazolo[3,4-d]pyrimidine] |
| 1000 to 10000 | 1000 to 10000 | – | – | Cc1ccc(Cl)cc1N1CCN(c2ncnc3[nH]nc(-c4ccc(OCCN5CCOCC5)cc4)c23)CC1 [Entry 373, 4-[4-(5-chloro-2-methylphenyl)piperazin-1-yl]-3-{4-[(2-morpholin-4-ylethyl)oxy]phenyl}-1H-pyrazolo[3,4-d]pyrimidine] |
| 1000 to 10000 | 1000 to 10000 | – | – | Cc1ccc(-c2n[nH]c3ncnc(N4CCN(c5cc(Cl)ccc5C)CC4)c23)cc1 [Entry 341, 4-[4-(5-chloro-2-methylphenyl)piperazin-1-yl]-3-(4-methylphenyl)-1H-pyrazolo[3,4-d]pyrimidine] |
| 100 to 1000 | ≥ 10000 | – | – | CCc1n[nH]c2ncnc(N3CCCN(c4cccc(Cl)c4)CC3)c12 [Entry 343, 4-[4-(3-chlorophenyl)-1,4-diazepan-1-yl]-3-ethyl-1H-pyrazolo[3,4-d]pyrimidine] |
| – | – | < 100 | 100 to 1000 | Cn1c(CCCO)nc2c(N3CCN(c4ncnc5[nH]nc(Br)c45)CC3)cc(C(F)(F)F)cc21 [Entry 273, 3-[4-[4-(3-bromo-1H-pyrazolo[3,4-d]pyrimidin-4-yl)piperazin-1-yl]-1-methyl-6-(trifluoromethyl)-1H-benzimidazol-2-yl]propan-1-ol] |
| < 100 | 1000 to 10000 | – | – | Cc1ccc(Cl)cc1N1CCN(c2ncnc3[nH]nc(C)c23)CC1 [Entry 321, 4-[4-(5-chloro-2-methylphenyl)piperazin-1-yl]-3-methyl-1H-pyrazolo[3,4-d]pyrimidine] |
| < 100 | 1000 to 10000 | – | – | Cc1ccc(Cl)cc1N1CCN(c2ncnc3[nH]nc(-c4ccncc4)c23)CC1 [Entry 364, 4-[4-(5-chloro-2-methylphenyl)piperazin-1-yl]-3-pyridin-4-yl-1H-pyrazolo[3,4-d]pyrimidine] |
| < 100 | 1000 to 10000 | – | – | CCc1n[nH]c2ncnc(N3CCN(c4cc(Cl)cc(OCCN(C)C)c4OC)CC3)c12 [Entry 384, 2-{[5-chloro-3-[4-(3-ethyl-1H-pyrazolo[3,4-d]pyrimidin-4-yl)piperazin-1-yl]-2-(methyloxy)phenyl]oxy}-N,N-dimethylethanamine] |

Continued, compound first:

| Compound | IC50 (p70S6K) [nM] | IC50 (AktK) [nM] | IC50 (p70S6K; Table 1, class symbols per key) [nM] | IC50 (AktK; Table 1, class symbols per key) [nM] |
| --- | --- | --- | --- | --- |
| CCc1n[nH]c2ncnc(N3CCN(c4cc(Cl)cc(N(C)CCN(C)C)c4C)CC3)c12 [Entry 82, N-{5-chloro-3-[4-(3-ethyl-1H-pyrazolo[3,4-d]pyrimidin-4-yl)piperazin-1-yl]-2-methylphenyl}-N,N′,N′-trimethylethane-1,2-diamine] | – | – | < 100 | 1000 to 10000 |
| CCc1n[nH]c2ncnc(N3CCN(c4cc(Cl)cc(OCCCN5CCCC5)c4C)CC3)c12 [Entry 35, 4-(4-{5-chloro-2-methyl-3-[(3-pyrrolidin-1-ylpropyl)oxy]phenyl}piperazin-1-yl)-3-ethyl-1H-pyrazolo[3,4-d]pyrimidine] | – | – | < 100 | 100 to 1000 |
| Cc1c(OCCC2CCN(C)CC2)cc(Cl)cc1N1CCN(c2ncnc3[nH]nc(Br)c23)CC1 [Entry 89, 3-bromo-4-[4-(5-chloro-2-methyl-3-{[2-(1-methyl-piperidin-4-yl)ethyl]oxy}phenyl)piperazin-1-yl]-1H-pyrazolo[3,4-d]pyrimidine] | – | – | < 100 | < 100 |
| CCN(CC)CCCc1cc(Cl)cc(N2CCN(c3ncnc4[nH]nc(C(F)(F)F)c34)CC2)c1C [Entry 87, 3-(5-chloro-2-methyl-3-{4-[3-(trifluoromethyl)-1H-pyrazolo[3,4-d]pyrimidin-4-yl]piperazin-1-yl}phenyl)-N,N-diethylpropan-1-amine] | – | – | < 100 | 100 to 1000 |
| Cc1c(NCCN2CCCC2)cc(Cl)cc1N1CCN(c2ncnc3[nH]nc(C4CC4)c23)CC1 [Entry 161, 5-chloro-3-[4-(3-cyclopropyl-1H-pyrazolo[3,4-d]pyrimidin-4-yl)piperazin-1-yl]-2-methyl-N-(2-pyrrolidin-1-ylethyl)aniline] | – | – | < 100 | 100 to 1000 |
| Fc1cc(NCCN2CCCC2)c(Cl)c(N2CCN(c3ncnc4[nH]nc(Br)c34)CC2)c1 [Entry 129, 3-[4-(3-bromo-1H-pyrazolo[3,4-d]pyrimidin-4-yl)piperazin-1-yl]-2-chloro-5-fluoro-N-(2-pyrrolidin-1-ylethyl)aniline] | – | – | < 100 | 100 to 1000 |
| Brc1n[nH]c2ncnc(N3CCN(c4nccc(-c5ccco5)n4)CC3)c12 [Entry 143, 3-bromo-4-[4-(4-furan-2-ylpyrimidin-2-yl)piperazin-1-yl]-1H-pyrazolo[3,4-d]pyrimidine] | – | – | 100 to 1000 | ≥ 10000 |
| CCN(CC)CCOc1cc(Cl)cc(N2CCN(c3ncnc4c3c(C(F)(F)F)nn4C(C)(C)C)CC2)c1C [Entry 33, 2-[(5-chloro-3-{4-[1-(1,1-dimethylethyl)-3-(tri-fluoromethyl)-1H-pyrazolo[3,4-d]pyrimidin-4-yl]piperazin-1-yl}-2-methylphenyl)oxy]-N,N-diethylethanamine] | – | – | 1000 to 10000 | 1000 to 10000 |
| Clc1ccc(N2CCN(c3ncnc4[nH]nc(Br)c34)CC2)cc1 [Entry 154, 3-bromo-4-[4-(4-chlorophenyl)piperazin-1-yl]-1H-pyrazolo[3,4-d]pyrimidine] | – | – | 100 to 1000 | ≥ 10000 |
| Cc1ccc(C(=O)Nc2ccccc2)cc1N1CCN(c2ncnc3[nH]nc(Br)c23)C[C@@H]1C [Entry 177, 3-[(2S)-4-(3-bromo-1H-pyrazolo[3,4-d]pyrimidin-4-yl)-2-methylpiperazin-1-yl]-4-methyl-N-phenylbenzamide] | – | – | < 100 | 100 to 1000 |
| 6-(4-phenylpiperazin-1-yl)-9H-purine [Example 1] | – | – | 1000 to 10000 | 1000 to 10000 |
| Cc1c(NCCN2CCCC2)cc(OCC2CCCC2)cc1N1CCN(c2ncnc3[nH]nc(Br)c23)CC1 [Entry 218, 3-[4-(3-bromo-1H-pyrazolo[3,4-d]pyrimidin-4-yl)piperazin-1-yl]-5-[(cyclopentylmethyl)oxy]-2-methyl-N-(2-pyrrolidin-1-ylethyl)aniline] | – | – | < 100 | < 100 |
| CCc1cc(NCCN2CCCC2)c(C)c(N2CCN(c3ncnc4[nH]nc(Br)c34)CC2)c1 [Entry 245, 3-[4-(3-bromo-1H-pyrazolo[3,4-d]pyrimidin-4-yl)piperazin-1-yl]-5-ethyl-2-methyl-N-(2-pyrrolidin-1-ylethyl)aniline] | – | – | < 100 | 100 to 1000 |
| Cc1c(Br)cc(C(=O)Nc2ccccc2)cc1N1CCN(c2ncnc3[nH]nc(Br)c23)CC1 [Entry 191, 3-bromo-5-[4-(3-bromo-1H-pyrazolo[3,4-d]pyrimidin-4-yl)piperazin-1-yl]-4-methyl-N-phenylbenzamide] | – | – | < 100 | 100 to 1000 |
| Cc1ccc(Cl)cc1N1CCN(c2ncnc3[nH]nc(C=C4C[C@@H]5CN(C(=O)OCc6ccccc6)C[C@@H]5C4)c23)CC1 [Entry 395, phenylmethyl (3aR,6aS)-5-({4-[4-(5-chloro-2-methylphenyl)piperazin-1-yl]-1H-pyrazolo[3,4-d]pyrimidin-3-yl}methylidene)hexahydrocyclo-penta[c]pyrrole-2(1H)-carboxylate] | 1000 to 10000 | 1000 to 10000 | – | – |
